Experimental findings from ChEMBL document CHEMBL1157358, “Comparative study of the effects of pyridoxine, rifampin, and renal function on hematological adverse events induced by linezolid” (Antimicrob Agents Chemother, 2007) are described below.

Each structure is given as a SMILES string. In brackets after ≈: the same amount, converted by molar mass. Activity calls are given as the source filed them.

Data set [1] deals with Homo sapiens. The data set can be described thus: Inhibition of linezolid-induced hematological events in orthopedic implant infection patient assessed as effect on thrombocytopenia at 200 mg, po once daily. It is filed as functional, organism-based.
For data set [2], the system named is Homo sapiens. The data set can be described thus: Inhibition of linezolid-induced hematological events in orthopedic implant infection patient assessed as effect on anemia at 200 mg, po once daily. It is filed as functional, organism-based.
Data set [3] is filed under the species Homo sapiens. The data set can be described thus: Inhibition of linezolid-induced hematological events in bone infection patient assessed as rate of thrombocytopenia at 125 mg relative to control. It is filed as functional. Also on record: scale not given: the % may be the effect or the level left.
The species entered for data set [4] is Homo sapiens. The data set can be described thus: Inhibition of linezolid-induced hematological events in bone infection patient assessed as rate of anemia at 125 mg relative to control. The arrangement: scale not given: the % may be the effect or the level left. It is filed as functional.
Data set [5] is filed under the species Homo sapiens. The experiment in a line: Inhibition of linezolid-induced hematological events in orthopedic implant infection patient assessed as thrombocytopenia incidence relative to control. Also on record: scale not given: the % may be the effect or the level left. In kind it is functional.
The species entered for data set [6] is Homo sapiens. The data set can be described thus: Inhibition of linezolid-induced hematological events in orthopedic implant infection patient assessed as reduction of anemia incidence relative to control. It is filed as functional, organism-based.
Data set [7] relates to Staphylococcus aureus. The experiment in a line: Antibacterial activity against Staphylococcus aureus. It is filed as functional.
In data set [8] the test system is Staphylococcus. The experiment in a line: Antibacterial activity against coagulase-negative Staphylococcus. In kind it is functional.
Data set [9] has as its system Enterococcus. The data set can be described thus: Antibacterial activity against Enterococcus. In kind it is functional.
The test system of data set [10] is Streptococcus. The data set can be described thus: Antibacterial activity against Streptococcus. It is filed as functional.
Data set [11] deals with mitochondrial protein synthesis. The data set can be described thus: Toxicity in rat heart mitochondria assessed as inhibition of mitochondrial protein synthesis. Particulars: pooled result: one value given for 4 cell lines, strains, targets or settings.
Data set [12] in a line: AUC in human at 600 mg administered every 12 hrs measured after 24 hrs. It is filed as ADME, organism-based. Also on record: time < 24 hr, dose 600 mg. To be noted: plasma.
Data set [13] in a line: Drug level at steady state in human serum at 600 mg administered every 12 hrs. In kind it is ADME, cell-free. To be noted: read-out: Drug uptake.

Turning to `Cc1ncc(CO)c(CO)c1O` [PYRIDOXINE], the result in [1] and in data set [2] was inactive. For the same compound, the Activity in [3] worked out at 45.8%; in data set [4] it was 25%.
In the case of `CO[C@H]1/C=C/O[C@@]2(C)Oc3c(C)c(O)c4c(O)c(c(/C=N/N5CCN(C)CC5)c(O)c4c3C2=O)NC(=O)/C(C)=C\C=C\[C@H](C)[C@H](O)[C@@H](C)[C@@H](O)[C@@H](C)[C@H](OC(C)=O)[C@@H]1C` [RIFAMPIN], the Activity in data set [5] was 5.8%. Besides, in data set [6], the outcome was Active.
The MIC is the smallest concentration in the dilution series that meets the test's criterion for growth inhibition. In general, IC50 refers to the concentration needed to halve the response being measured. By AUC is commonly meant the area under the concentration-time curve, a measure of exposure. As for `CC(=O)NC[C@H]1CN(c2ccc(N3CCOCC3)c(F)c2)C(=O)O1` [LINEZOLID], the MIC in data set [7], in data set [8], in data set [9] and in data set [10] was 0.5 µg/mL (≈ 1.48 µM) in each case. Further, the IC50 in data set [11] was found to be 3.37 µg/mL (≈ 9.99 µM). The same compound showed an AUC at 24 h in data set [12] of 260 µg·h/mL. For the same compound, the concentration at 12 h in data set [13] amounted to 6000 ng/mL.
